How the values were obtained:
[1] = test system: fluorescent AGEs; experiment: Quantitative determination of fluorescent AGEs after reaction at 37° C. for 42 days; assay type: biochemical; settings: for Fluorescent AGEs: 37° C., 42 days
Description: After 0.4 g of a high molecular weight fraction and 8 mL of 6N hydrochloric acid were charged in an ampule and the air in the ampule was replaced with nitrogen, hydrolysis was performed at 110° C. for 16 hours in a heat block. After reaction, 8 mL of 5N sodium hydroxide was added, and pH was adjusted using 1N hydrochloric acid and 1N sodium hydroxide to make pH within a range of 7.2 to 7.6. Then, the solution was filtered through a 0.45 μm filter. Using the thus obtained filtrate as a sample, fluorescent AGEs were quantitatively determined using the following methods. After weighing 2.5 mg of a standard substance perylene, the standard substance perylene was fully dissolved in 10 mL of deaerated ethanol added thereto to prepare a perylene solution. The perylene solution diluted to the concentration of 10 μM was exposed to excitation light with a wavelength of 386 nm and then the area was calculated by measuring a fluorescence intensity ranging from 410 to 600 nm. Meanwhile, the sample was exposed to excitation light with a wavelength of 380 nm and then the area was calculated by measuring a fluorescence intensity ranging from 400 to 600 nm. By considering the area measurement value of the sample as a value relative to the area value of the 10 μM perylene solution, fluorescent AGEs were determined.
(§1) Amino acid or biological protein, carbohydrates and a phosphate buffer solution were charged in a 50 mL polypropylene centrifuge tube in each amount shown in Table 8, followed by sealing and stirring, and then the mixture was reacted in an incubator at 37° C. for 42 days. Next, the reactant was fractionated by centrifugation at 3,000 rpm for 3 hours using an ultrafiltration unit (VIVA SPIN 20, manufactured by Sartorius Corporation). The obtained low molecular weight fraction was used as a sample for determination of 3-DG, while the obtained high molecular weight fraction was used as a sample for the determination of fluorescent AGEs. Amino acid, biological protein and carbohydrates used are as follows:
In the same manner as in Test Example 1, except that the low molecular weight fraction prepared as mentioned above was used as a sample, quantitative determination of 3-DG was performed. In the same manner as in Test Example 2, except that the high molecular weight fraction prepared as mentioned above was used as a sample, determination of fluorescent AGEs was performed.
(§2) Amino acid, carbohydrates and a phosphate buffer solution were charged in a 50 mL polypropylene centrifuge tube in each amount shown in Table 10, followed by sealing and stirring, and then the mixture was reacted in an incubator at 37° C. for 42 days. Next, the reactant was filtered through a 0.2 μm filter and the obtained filtrate was used as a sample. Amino acid and carbohydrates used are as follows:
After weighing 2.5 mg of a standard substance perylene, the standard substance perylene was fully dissolved in 50 mL of deaerated ethanol added thereto to prepare a perylene solution. The perylene solution diluted to the concentration of 10 μM was exposed to excitation light with a wavelength of 386 nm and then the area was calculated by measuring a fluorescence intensity ranging from 410 to 600 nm. Meanwhile, the sample was exposed to excitation light with a wavelength of 380 nm and then the area was calculated by measuring a fluorescence intensity ranging from 400 to 600 nm. By considering the area measurement value of the sample as a value relative to the area value of the 10 μM perylene solution, fluorescent AGEs were quantitatively determined.
Biological proteins, carbohydrates and a phosphate buffer solution are charged in a 50 mL polypropylene centrifuge tube in each amount shown in Table 12, followed by sealing and stirring, and then the mixture was reacted in an incubator at 37° C. for 42 days. Next, the reactant was fractionated by centrifugation at 3,000 rpm for 3 hours using an ultrafiltration unit (VIVA SPIN 20, manufactured by Sartorius Corporation). […]

[2] = test system: pentosidine; experiment: Quantitative determination of pentosidine after reaction at 37° C. for 42 days; assay type: biochemical; settings: for Pentosidine: 37° C., 42 days
Description: as §2
Using a pentosidine measurement kit “FSK Pentosidine (registered trademark)” (manufactured by Fushimi Pharmaceutical Co., Ltd.), quantitative determination of pentosidine was performed in the following manner. Thirty (30) or more minutes before use, reagents and pentosidine solid-phase plates were put to room temperature. After dilution of the sample, a 50 μL aliquot of the sample was dispensed to a pentosidine solid-phase plate attached to the kit, and 50 μL of a first antibody solution was dispensed into wells other than the wells for measurement of reagent blank value. After the sample and the antibody solution were mixed by shaking the plate at 300 rpm for 1 minute, the solution was reacted at 37° C. for 1 hour. Next, the reaction solution was discarded, and 200 μL of rinsing fluid was dispensed to wash the plate. The washing was performed for 3 times. After liquid on the plate was removed, 100 μl of a second antibody solution was dispensed into wells other than the wells for measurement of reagent blank value. After the solution was mixed by shaking the plate at 300 rpm for 1 minute, the solution was reacted at 25° C. for 1 hour. Then, the reaction solution was discarded, and the plate was washed for 3 times with 200 μL of rinsing fluid again. Liquid on the plate was removed, and 100 μL of a color coupler was dispensed and left to stand for 10 minutes under a light shielding condition. Finally, 100 μL of a reaction stop solution was dispensed, and within 10 minutes after the dispensing, measurement was performed at main wavelength 450 nm/reference wavelength 630 nm using a micro-plate reader. The concentration of pentosidine was determined using the calibration curve of a pentosidine standard solution, based on measurement values of the sample.
as §1, with “Biological proteins,” for “Amino acid or biological protein,”, “are” for “were”, “12,” for “8,”, “AGEs, pentosidine, CML, RAGE agonist activity and RAGE antagonist activity. Biological proteins” for “AGEs. Amino acid, biological protein”
In the same manner as in Test Example 4, except that the low molecular weight fraction prepared as mentioned above was used as a sample, quantitative determination of 3-DG was performed. In the same manner as in Test Example 4, except that the high molecular weight fraction was filtered through a 0.2 μm filter and the filtrate was used as a sample, fluorescent AGEs, pentosidine, CML, RAGE agonist activity and RAGE antagonist activity were evaluated.
as §1, with “Collagen,” for “Amino acid or biological protein,”, “14,” for “8,”, “3-DG. […]” for “3-DG, while the obtained high molecular weight fraction was used as a sample for the determination of fluorescent AGEs. Amino acid, biological protein and carbohydrates used are as follows:”

[3] = Test Example 4, amino acid 0.4 g + carbohydrate 1.8 g
[4] = Test Example 5, bovine serum albumin 0.4 g + carbohydrate 1.8 g
[5] = Test Example 5, human serum albumin 0.4 g + carbohydrate 1.8 g
[6] = Test Example 5, γ-globulin 0.4 g + carbohydrate 1.8 g
[7] = Test Example 6, collagen 0.015 g + carbohydrate 1.8 g, hydrolysed high molecular weight fraction
[8] = Test Example 3, amino acid (lysine:arginine 1:1) 0.4 g + glucose 1.8 g or maltitol 3.4 g
[9] = Test Example 3, bovine serum albumin 0.4 g + glucose 1.8 g or maltitol 3.4 g
[10] = Test Example 4, amino acid, compared with sections containing glucose and fructose
[11] = Test Example 5, bovine serum albumin, human serum albumin, γ-globulin, compared with sections containing fructose
[12] = Test Example 5, bovine serum albumin, human serum albumin, γ-globulin, compared with sections containing glucose
[13] = Test Example 6, collagen, compared with sections containing glucose and fructose

Structure (SMILES)	Fluorescent AGEs [1, 3]	Fluorescent AGEs [1, 4]	Fluorescent AGEs [1, 5]	Fluorescent AGEs [1, 6]	Fluorescent AGEs [1, 7]	Pentosidine [2, 3]	Pentosidine [2, 4]	Pentosidine [2, 5]	Pentosidine [2, 6]	Pentosidine [2, 7]	Fluorescent AGEs [1, 8]	Fluorescent AGEs [1, 9]	also measured
O=C(CO)[C@@H](O)[C@H](O)[C@H](O)CO [Fructose]	11.4 nmol/1 mL of reaction solution	28 nmol/1 mL of reaction solution	25.2 nmol/1 mL of reaction solution	17.3 nmol/1 mL of reaction solution	2.4 nmol/1 mL of reaction solution	24.7 nmol/1 mL of reaction solution	0.03 nmol/1 mL of reaction solution	0.05 nmol/1 mL of reaction solution	0.005 nmol/1 mL of reaction solution	0.15 nmol/1 mL of reaction solution	–	–	–
O=C[C@H](O)[C@@H](O)[C@H](O)[C@H](O)CO [Glucose]	17.4 nmol/1 mL of reaction solution	11 nmol/1 mL of reaction solution	8.6 nmol/1 mL of reaction solution	3.0 nmol/1 mL of reaction solution	1.4 nmol/1 mL of reaction solution	5.8 nmol/1 mL of reaction solution	0.01 nmol/1 mL of reaction solution	0.02 nmol/1 mL of reaction solution	0.002 nmol/1 mL of reaction solution	0.06 nmol/1 mL of reaction solution	91 nmol/1 g of protein	46 nmol/1 g of protein	–
OC[C@@H](O)[C@@H](O[C@H]1O[C@H](CO)[C@@H](O)[C@H](O)[C@H]1O)[C@H](O)[C@@H](O)CO [Maltitol]	–	–	–	–	–	–	–	–	–	–	2 nmol/1 g of protein	7 nmol/1 g of protein	production of AGEs ([1]; Test Example 3, amino acids and bovine serum albumin, compared with sections containing glucose): decreased
OC[C@@H](O)[C@@H](O)[C@H](O)[C@@H](O)CO [Sorbitol]	0.4 nmol/1 mL of reaction solution	2.0 nmol/1 mL of reaction solution	5.4 nmol/1 mL of reaction solution	1.3 nmol/1 mL of reaction solution	0.5 nmol/1 mL of reaction solution	0.8 nmol/1 mL of reaction solution	0.03 nmol/1 mL of reaction solution	0.02 nmol/1 mL of reaction solution	0.002 nmol/1 mL of reaction solution	0.05 nmol/1 mL of reaction solution	–	–	production of fluorescent AGEs [1, 10]: decreased; production of fluorescent AGEs [1, 11]: decreased; production of fluorescent AGEs [1, 12]: decreased; production of fluorescent AGEs [1, 13]: decreased; production of pentosidine [2, 10]: decreased; production of pentosidine [2, 11]: decreased; production of pentosidine [2, 12]: decreased; production of pentosidine [2, 13]: decreased
